Measurements from patent publication US12686668B2, “Leukotriene synthesis inhibitors” (Naegis Pharmaceuticals Inc., priority 2019, dated 2026).

Key:
[1] = system: LTB4 production in MC/9 cells; experiment: MC/9 HPLC assay, inhibition of LTB4 production; assay type: cell-based; conditions: Mus musculus, MC9, Table 2 column 4, no concentration in head (1 μM according to b732), read-out: % Inhibition LTB4
Protocol: (§1) Cultured MC/9 cells (3×10^6 cells) in 1 mL HBSS were pre-incubated with a series of concentrations of compound solubilized in DMSO for 30 minutes. Production of leukotrienes were stimulated with the addition of 1 μM calcium ionophore (A23187), diluted from a 4 mM DMSO stock in HBSS, and incubated at room temperature for 20 minutes. The reaction was stopped with the addition of 500 μL of methanol containing 20 ng/mL prostaglandin B2 as an internal standard. Samples were collected and stored at −20° C. at least 2 hr or overnight before centrifuged at 13,000 rpm for 15 minutes and loaded onto C18 SEP-PAK columns (Canadian Lifesciences IS12000) for solid phase extraction. The leukotrienes were analyzed by HPLC using an ACE C18 column (4.5 mm×150 mm, 5 m) eluted with acetonitrile/methanol/water mixture with H3PO4, pH 3.5 (37:26:37) with a flow rate of 1.8 mL/min. The amount of LTB4 (Cayman Chemical, 20110) and LTC4 (Cayman Chemical, 20210) were calculated based on reference standards and the level of inhibition of LTB4 production induced by the test compounds was calculated relative to control samples. The results are provided in Table 2, where Compound No. refers to the compounds identified in Table 1.

[2] = target: T1, recombinant human leukotriene A4 hydrolase enzyme (Homo sapiens, UniProt P09960); experiment: Amino-peptidase assay, alanine-4-nitroanalide; assay type: biochemical; conditions: negative values = augmented peptidase activity, read-out: % Inhibition aminopeptidase-Alanine-4-nitroanalide activity of LTA4H (3 μM)
T1 construct: purchased Cayman Chemical 10007817
T1 sequence (P09960 1-611): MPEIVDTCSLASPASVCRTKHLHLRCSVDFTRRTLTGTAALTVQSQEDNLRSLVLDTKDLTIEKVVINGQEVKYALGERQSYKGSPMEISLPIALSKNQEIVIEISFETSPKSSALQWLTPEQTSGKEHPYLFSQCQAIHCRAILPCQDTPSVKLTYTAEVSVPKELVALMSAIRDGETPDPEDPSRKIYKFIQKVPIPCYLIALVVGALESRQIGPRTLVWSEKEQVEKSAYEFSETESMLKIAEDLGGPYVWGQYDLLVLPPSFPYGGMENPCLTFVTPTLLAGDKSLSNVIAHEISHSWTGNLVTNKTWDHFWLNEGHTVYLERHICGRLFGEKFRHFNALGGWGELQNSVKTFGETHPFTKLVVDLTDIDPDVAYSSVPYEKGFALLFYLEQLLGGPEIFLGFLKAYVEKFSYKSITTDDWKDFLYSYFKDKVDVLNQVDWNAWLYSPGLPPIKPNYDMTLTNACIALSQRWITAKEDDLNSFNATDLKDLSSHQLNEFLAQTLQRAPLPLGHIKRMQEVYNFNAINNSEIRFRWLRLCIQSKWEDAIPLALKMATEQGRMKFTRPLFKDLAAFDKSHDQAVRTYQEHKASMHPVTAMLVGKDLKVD
Protocol: A series of compound concentrations were pre-incubated in the absence of light with 0.5 μg of recombinant human leukotriene A4 hydrolase enzyme (Cayman Chemical 10007817) in 50 μL assay buffer (50 mM Tris-HCl, 100 mM KCl). The reaction was stimulated by adding 50 μL 6 mM alanine-4-nitroanilide (Sigma Aldrich A9325) in assay buffer. The amount of amino-peptidase activity was measured by determining the change in absorbance at 405 nm due to 4-nitroanaline production and comparing the rate of change to a reference standard (Sigma Aldrich 185310). Amino-peptidase activity was compared to control samples and the level of inhibition was calculated. Compounds that augment peptidase activity are represented by negative values.

[3] = system: LTC4 production in MC/9 cells; experiment: MC/9 HPLC assay, inhibition of LTC4 production; assay type: cell-based; conditions: Mus musculus; for inhibition at 1 µM: MC9, Table 2 column 3, no concentration in head (1 μM according to b732), read-out: % Inhibition LTC4; for inhibition at 3 µM: MC9, 3 μM, A23187 stimulated
Protocol: as §1

[4] = system: LTB4 production in porcine or human whole blood; experiment: Whole blood HPLC assay, inhibition of LTB4 production; assay type: cell-based; conditions: 5 point curve, porcine or human whole blood (not specified)
Protocol: Porcine or human whole blood (1 mL) was pre-incubated with a series of concentrations of compound solubilized in DMSO for 30 minutes. Production of leukotrienes were stimulated with the addition of 20 μM calcium ionophore (A23187), diluted from a 4 mM DMSO stock in HBSS, and incubated at room temperature for 20 minutes. In porcine blood 20 μM arachidonic acid was added in addition to the calcium ionophore. The blood was centrifuged at 2,000 rpm for 15 minutes, and the plasma fraction removed for further processing. Plasma samples were diluted with 500 μL acidified water (HCl pH 3.0) and loaded onto C18 SEP-PAK columns (Canadian Lifesciences IS12000) for solid phase extraction. The leukotrienes were analyzed by HPLC using an ACE C18 column (4.5 mm×150 mm, 5 m) eluted with acetonitrile/methanol/water mixture with H3PO4, pH 3.5 (37:26:37) with a flow rate of 1.8 mL/min. The amount of LTB4 (Cayman Chemical, 20110) was calculated based on reference standards and the level of inhibition of LTB4 production induced by the test compounds was calculated relative to control samples. The results provided in Table 3 are IC50 values calculated based on a 5 point curve, where Compound No. refers to the compounds identified in Table 1.

Row | Structure (SMILES) | inhibition at 3 µM [2] | IC50 [4] | inhibition at 1 µM [1] | inhibition at 1 µM [3] | inhibition at 3 µM [3]
1 | CCC(=O)CCc1ccc(Oc2nc3ccccc3o2)c(OC)c1 [Compound 102, 1-[4-(1,3-benzoxazol-2-yloxy)-3-methoxyphenyl]pentan-3-one] | 0 to 50% | – | > 90% | 10 to 30% | –
2 | CCC(O)(CCc1ccc(Oc2nc3ccc(S(C)(=O)=O)cc3s2)c(OC)c1)C(F)(F)F (stereo not drawn) [Compound 106, 1-{3-methoxy-4-[(6-methylsulfonyl-1,3-benzothiazol-2-yl)oxy]phenyl}-3-(trifluoromethyl)pentan-3-ol] | – | > 10 µM | 10 to 30% | 10 to 30% | 30 to 50%
3 | CCC(O)(CCc1ccc(Oc2nc3c(F)cc(F)cc3s2)c(OC)c1)C(F)(F)F (stereo not drawn) [Compound 107, 1-{4-[(4,6-difluoro-1,3-benzothiazol-2-yl)oxy]-3-methoxyphenyl}-3-(trifluoromethyl)pentan-3-ol] | – | > 10 µM | > 90% | 70 to 90% | > 90%
4 | CCC(O)(CCc1ccc(Oc2nc3ccc(OC)cc3s2)c(OC)c1)C(F)(F)F (stereo not drawn) [Compound 109, 1-{4-[(6-methoxy-1,3-benzothiazol-2-yl)oxy]-3-methoxyphenyl}-3-(trifluoromethyl)pentan-3-ol] | 0 to 50% | – | 70 to 90% | 50 to 70% | –
5 | CCC(O)(CCc1ccc(Oc2nc3ccccc3s2)c(OC(C)C)c1)C(F)(F)F (stereo not drawn) [Compound 115, 1-[4-(1,3-benzothiazol-2-yloxy)-3-(iso-propyloxy)phenyl]-3-(trifluoromethyl)pentan-3-ol] | – | > 10 µM | < 10% | < 10% | < 10%
6 | CCC(O)(CCc1ccc(Oc2nc3ccccc3s2)c(OCC2CC2)c1)C(F)(F)F (stereo not drawn) [Compound 117, 1-[4-(1,3-benzothiazol-2-yloxy)-3-(cyclopropyl-methoxy)-phenyl]-3-(trifluoromethyl)-pentan-3-ol] | – | > 10 µM | 70 to 90% | 30 to 50% | –
7 | CCOc1cc(CCC(O)(CC)C(F)(F)F)ccc1Oc1nc2ccccc2s1 (stereo not drawn) [Compound 121, 1-[4-(1,3-benzothiazol-2-yloxy)-3-ethoxyphenyl]-3-(trifluoromethyl)pentan-3-ol] | 0 to 50% | – | 50 to 70% | 50 to 70% | –
8 | COc1cc(CCC(O)c2ccccc2)ccc1Oc1nc2ccccc2s1 (stereo not drawn) [Compound 132, 3-[4-(1,3-benzothiazol-2-yloxy)-3-methoxyphenyl]-1-phenylpropan-1-ol] | – | > 10 µM | > 90% | 70 to 90% | –
9 | COc1cc(C(O)C(F)(F)F)ccc1Oc1nc2c(SC)cccc2s1 (stereo not drawn) [Compound 139, 2,2,2-trifluoro-1-(3-methoxy-4-{[4-(methylsulfanyl)-1,3-benzothiazol-2-yl]oxy}phenyl)ethanol] | – | 1 to 10 µM | – | – | > 90%
10 | CCC(O)(CCc1ccc(Oc2nc3ccccc3s2)c(F)c1)C(F)(F)F (stereo not drawn) [Compound 154, 1-[4-(1,3-benzothiazol-2-yloxy)-3-fluorophenyl]-3-(trifluoromethyl)pentan-3-ol] | > 75% | – | 50 to 70% | 30 to 50% | < 10%
11 | CC(O)c1ccc(Oc2nc3ccccc3s2)cc1 (stereo not drawn) [Compound 160, 1-[4-(1,3-benzothiazol-2-yloxy)phenyl]ethanol] | – | > 10 µM | – | – | < 10%
12 | CSc1cccc2sc(Oc3ccc(C(C)O)cc3)nc12 (stereo not drawn) [Compound 176, 1-(4-{[4-(methylsulfanyl)-1,3-benzothiazol-2-yl]oxy}phenyl)ethanol] | < 25% | – | – | – | < 10%
13 | CC(O)c1ccc(Oc2nc3c(F)cc(F)cc3s2)cc1 (stereo not drawn) [Compound 180, 1-{4-[(4,6-difluoro-1,3-benzothiazol-2-yl)oxy]phenyl}ethanol] | 50 to 75% | – | – | – | < 10%
14 | COc1cc(Oc2nc3ccccc3s2)ccc1C(O)C(F)(F)F (stereo not drawn) [Compound 182, 1-{4-[(1,3-benzothiazol-2-yl}oxy]-2-methoxyphenyl}-2,2,2-trifluoroethan-1-ol] | < 25% | – | – | – | 10 to 30%

Second part, led by results:

Row | inhibition at 3 µM [2] | IC50 [4] | Structure (SMILES) | inhibition at 1 µM [1] | inhibition at 1 µM [3] | inhibition at 3 µM [3]
15 | 25 to 50% | – | COc1cc(CCC(C)(O)c2ccccc2)ccc1Oc1nc2ccccc2s1 (stereo not drawn) [Compound 123, 4-[4-(1,3-benzothiazol-2-yloxy)-3-methoxyphenyl]-2-(phenyl)butan-2-ol] | 50 to 70% | 10 to 30% | –
16 | < 25% | – | COc1cc(CCC(C)(O)c2ccccc2)ccc1Oc1nc2ccccc2o1 (stereo not drawn) [Compound 128, 4-[4-(1,3-benzoxazol-2-yloxy)-3-methoxyphenyl]-2-phenylbutan-2-ol] | < 10% | < 10% | < 10%
17 | – | > 10 µM | COc1cc(C(O)C(F)(F)F)ccc1Oc1nc2ccccc2s1 (stereo not drawn) [Compound 137, 1-[4-(1,3-benzothiazol-2-yloxy)-3-methoxyphenyl]-2,2,2-trifluoroethanol] | 10 to 30% | – | 50 to 70%
18 | – | > 10 µM | CC(O)(c1ccc(Oc2nc3ccccc3s2)cc1)C(F)(F)F (stereo not drawn) [Compound 163, 2-[4-(1,3-benzothiazol-2-yloxy)phenyl]-1,1,1-trifluoropropan-2-ol] | – | – | 10 to 30%
19 | 0 to 50% | – | COc1cc(C(C)(O)C(F)(F)F)ccc1Oc1nc2ccccc2s1 (stereo not drawn) [Compound 173, 2-[4-(1,3-benzothiazol-2-yloxy)-3-methoxyphenyl]-1,1,1-trifluoropropan-2-ol] | – | – | 30 to 50%
20 | – | 0.1 to 1 µM | CCC(O)(CCc1ccc(OCc2ccc3ccccc3n2)cc1)C(F)(F)F (stereo not drawn) [Compound 185, 1-[4-(quinolin-2-ylmethoxy)-phenyl]-3-(trifluoromethyl)-pentan-3-ol] | – | – | 70 to 90%
21 | – | 0.1 to 1 µM | CC(O)(c1ccc(OCc2ccc3ccccc3n2)cc1)C(F)(F)F (stereo not drawn) [Compound 197, 1,1,1-trifluoro-2-[4-(quinolin-2-ylmethoxy)phenyl]propan-2-ol] | – | – | > 90%
22 | – | 0.1 to 1 µM | CCC(O)(CCc1ccc(OCc2ccc3ccccc3n2)c(OC)c1)C(F)(F)F (stereo not drawn) [Compound 198] | – | – | 30 to 50%
23 | – | > 10 µM | COc1cc(C(C)(O)C(F)(F)F)ccc1OCc1ccc2ccccc2n1 (stereo not drawn) [Compound 199, 1,1,1-trifluoro-2-[3-methoxy-4-(quinolin-2-ylmethoxy)phenyl]propan-2-ol] | – | – | 30 to 50%
